# Biological target: Non-receptor tyrosine-protein kinase TYK2 (Homo sapiens, UniProt P29597)
# Experiment: Binding Assay: Binding constants for compounds of the present invention against the JH2 domain were determined by the following protocol for a KINOMEscan® assay (DiscoveRx). A fusion protein of a partial length construct of human TYK2 (JH2domain-pseudokinase) (amino acids G556 to D888 based on reference sequence NP_003322.3) and the DNA binding domain of NFkB was expressed in transiently transfected HEK293 cells. From these HEK 293 cells, extracts were prepared in M-PER extraction buffer (Pierce) in the presence of Protease Inhibitor Cocktail Complete (Roche) and Phosphatase Inhibitor Cocktail Set II (Merck) per manufacturers' instructions. The TYK2 (JH2domain-pseudokinase) fusion protein was labeled with a chimeric double-stranded DNA tag containing the NFkB binding site (5′-GGGAATTCCC-3′) fused to an amplicon for qPCR readout, which was added directly to the expression extract (the final concentration of DNA-tag in the binding reaction is 0.1 nM).
# Assay type: cell-based
# Sequence of Non-receptor tyrosine-protein kinase TYK2 (P29597 whole entry, the tested form may be a part): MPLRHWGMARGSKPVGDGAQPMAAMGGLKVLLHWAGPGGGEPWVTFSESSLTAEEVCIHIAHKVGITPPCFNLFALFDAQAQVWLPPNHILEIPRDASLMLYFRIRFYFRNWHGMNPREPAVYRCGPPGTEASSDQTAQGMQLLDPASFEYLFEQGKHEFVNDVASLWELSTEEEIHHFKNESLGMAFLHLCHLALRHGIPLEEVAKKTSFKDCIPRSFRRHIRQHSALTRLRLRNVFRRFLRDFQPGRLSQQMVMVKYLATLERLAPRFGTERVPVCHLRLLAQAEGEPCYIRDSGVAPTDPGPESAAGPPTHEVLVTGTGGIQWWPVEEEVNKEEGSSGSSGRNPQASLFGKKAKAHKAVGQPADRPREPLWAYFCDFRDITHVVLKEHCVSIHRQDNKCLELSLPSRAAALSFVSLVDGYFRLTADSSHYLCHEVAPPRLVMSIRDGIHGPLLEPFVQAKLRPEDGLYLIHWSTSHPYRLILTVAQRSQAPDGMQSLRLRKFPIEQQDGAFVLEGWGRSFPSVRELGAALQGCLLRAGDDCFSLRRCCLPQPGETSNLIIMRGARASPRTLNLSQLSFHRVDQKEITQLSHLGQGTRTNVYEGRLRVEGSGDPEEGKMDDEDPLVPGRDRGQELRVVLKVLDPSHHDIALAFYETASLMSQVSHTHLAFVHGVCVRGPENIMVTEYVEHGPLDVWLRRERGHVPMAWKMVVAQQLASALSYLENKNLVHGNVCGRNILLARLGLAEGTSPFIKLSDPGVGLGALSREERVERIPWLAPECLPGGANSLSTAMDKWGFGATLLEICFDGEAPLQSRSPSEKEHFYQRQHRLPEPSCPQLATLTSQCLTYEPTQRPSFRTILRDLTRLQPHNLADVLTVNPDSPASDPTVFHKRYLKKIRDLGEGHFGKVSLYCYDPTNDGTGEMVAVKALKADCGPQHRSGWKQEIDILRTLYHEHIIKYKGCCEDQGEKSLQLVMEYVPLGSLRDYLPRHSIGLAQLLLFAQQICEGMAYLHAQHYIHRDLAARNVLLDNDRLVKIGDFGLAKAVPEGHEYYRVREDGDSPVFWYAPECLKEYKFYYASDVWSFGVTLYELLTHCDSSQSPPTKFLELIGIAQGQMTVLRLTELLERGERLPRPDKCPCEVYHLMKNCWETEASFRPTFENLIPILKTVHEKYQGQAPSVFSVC
row,Kd [nM],SMILES
1,< 0.1,COCCNc1ccc(Nc2cc(Nc3ccccc3N(C)S(C)(=O)=O)c3nc(C)[nH]c3n2)nc1C#N
2,< 0.1,CN(c1cc(-c2cncn2C)ccc1Nc1cc(NC(=O)[C@@H]2C[C@@H]2F)nc2[nH]c(C(F)F)nc12)S(C)(=O)=O

# The remaining lines, values behind:
row,SMILES,Kd [nM]
1,Cc1nc2c(Nc3ccc(-c4cnn(C)c4C)cc3S(C)(=O)=O)cc(Nc3cccc(C#N)n3)nc2[nH]1,< 0.1
2,COc1c(Nc2cc(Nc3ccc(C(C)(C)OC)c(C#N)n3)nc3[nH]c(C)nc23)cccc1-c1nnn(C)n1,> 10
3,COc1ccccc1Nc1cc(Nc2ccc(N3CCC4(CCOCC4)CC3)cn2)nc2[nH]c(C)nc12,> 10
4,Cn1cncc1-c1ccc(Nc2cc(NC(=O)[C@@H]3C[C@@H]3F)nc3[nH]c(C(F)F)nc23)c(S(C)(=O)=O)c1,< 0.1
5,Cc1c(-c2ccc(Nc3cc(NC(=O)C4CC4)nc4[nH]c(C(F)F)nc34)c(S(C)(=O)=O)c2)cnn1C,< 0.1
